* marks the point of attachment. Octanoyl = CCCCCCCC(=O)*; Hexanoyl = CCCCCC(=O)*
What was measured:
[1] = system: host cells; settings: cited from earlier work
[2] = system: Gram-negative bacteria; settings: cited from earlier work
[3] = system: Acinetobacter baumannii ATCC 17978; experiment: MIC assay, sensitizing effect of peptide on antibiotics; assay type: cell-based; settings: for MIC reduction effect (fold reduction) of erythromycin: peptide 0.4 uM with erythromycin vs erythromycin alone; for sensitizing ability to erythromycin and novobiocin: recap of Example 1
Description: Each peptide at a concentration of 0.4 uM was used together with the two gram-positive antibiotics erythromycin and novobiocin to identify their effect on Acinetobacter baumannii ATCC 17978 (MIC assay). Acinetobacter baumannii, which is Gram-negative bacteria commonly classified as an opportunistic pathogen, is a human-infecting bacterium with a high probability of nosocomial infection because it has broad-spectrum antibacterial resistance and is able to survive for a long time even in a low-humidity environment. For each of the gram-positive antibiotics, as compared with MIC of each antibiotic in a case of being used alone, fold reduction of MIC of each antibiotic was measured in a case where each antibiotic was used together with each peptide.
All MIC assay experiments were performed using the Clinical and Laboratory Standards Institute (CLSI) guidelines (Clinical & Laboratory Standards Institute: CLSI Guidelines, 2017). […] The cells were inoculated at 1.5×10^5 CFU per 200 μL solution of each well in a 96-well plate. The peptide and the antibiotic were prepared using 2-fold serially diluted concentrations. […] Incubation was performed at 37° C. for 18 hours, and then absorbance was measured at 600 nm using an EPOCH2 microplate reader (BioTek, Winooski, USA) to calculate a MIC value. […] Fold reduction was calculated using the following expression.
(§1) Fold reduction=MIC of antibiotic alone/MIC of antibiotic in presence of sensitizing peptide
The same MIC assay method as in Example 3 was used.
(§2) ATCC 25922, A.b. ATCC 17978, K.p. ATCC 700603, and P.a. ATCC 27853, or CRE (E.c. NDM-1, K.p. NDM-1, or K.p. KPC) (FIGS. 9 and 10).

[4] = system: E. coli ATCC 25922; experiment: MIC assay, sensitizing effect of peptide on antibacterial agents; assay type: cell-based
Description: All MIC assay experiments were performed using the Clinical and Laboratory Standards Institute (CLSI) guidelines (Clinical & Laboratory Standards Institute: CLSI Guidelines, 2017). Bacterial cells cultured overnight were diluted to 0.05 McFarland standard using McFarland (KIT […] PLUS INSTRUMENT, Biomerieux) in Muller Hinton II Broth (cation-adjusted) (Difco). The cells were inoculated at 1.5×10^5 CFU per 200 μL solution of each well in a 96-well plate. The peptide and the antibiotic were prepared using 2-fold serially diluted concentrations. […] Incubation was performed at 37° C. for 18 hours, and then absorbance was measured at 600 nm using an EPOCH2 microplate reader (BioTek, Winooski, USA) to calculate a MIC value. The MIC value was defined as a concentration of the antibiotic or peptide at which bacterial growth was inhibited to a level of lower than 10% growth of the positive control. Fold reduction was calculated using the following expression.
as §1
Using the same MIC assay method as in Example 1, sensitizing effects of the peptide L9P (CMP1107, 1 ug/ml), which is known as a conventional sensitive AMP, and CMP1401 (1 ug/ml) were compared on existing antibacterial agents against E. coli ATCC 25922 (FIG. 5A).
In addition, MIC screening was used to compare sensitizing effects of the competitive drug SPR741 and the peptide CMP1401 or CMP1501 on the existing antibacterial agents against E. coli ATCC 25922 (FIGS. 5B and 5C). SPR741, which is a previously known polymyxin B (PMB) analog, is a sensitive AMP, and is a drug that has been identified through preclinical experiments to be effective against Gram-negative bacteria in a case of being used together with existing Gram-positive antibiotics.
as §2

[5] = system: outer membrane of E. coli NDM-1; experiment: Enzyme assay, outer membrane leakage (β-lactamase release, CENTA); assay type: cell-based; settings: peptide 0.63 or 1.30 uM, 37° C., 1 h; 200 μM CENTA
Description: (§3) It was observed, through an enzyme assay, whether the sensitizing peptide destroyed the outer and inner membranes of Gram-negative bacteria. In the presence of the sensitizing peptide, it was observed whether in a case where 1.5 mM ONPG was used together therewith, β-galactosidase was released from E. coli ATCC 25922 for the inner membrane, and whether in a case where 200 μM CENTA was used together therewith, β-lactamase was released from E. coli NDM-1 for the outer membrane.
Specifically, to determine leakage of the outer membrane, activity of the β-lactamase released from the outer membrane was evaluated. New Delhi metallo-β-lactamase-1 (NDm-1)-producing E. coli cells were washed three times with DPBS and suspended in the same buffer. The cells were diluted to an OD600 of 0.2 and treated with the peptide at a concentration of 0.63 or 1.30 uM at 37° C. for 1 h. After centrifugation, the supernatant was incubated with 200 μM CENTATM β-lactamase substrate at 37° C. for 1 hour. An optical density was obtained by measuring absorbance of a product of enzyme reaction at 405 nm using a microplate reader (Molecular Devices Co., Menlo Park, Calif.).
The results are illustrated in FIGS. 12A and 12B. The y-axis is absorbance measured at 405 nm, and higher absorbance is observed as a higher amount of β-lactamase is released due to destruction of the membrane.

[6] = system: inner membrane of E. coli ATCC 25922; experiment: Enzyme assay, inner membrane leakage (β-galactosidase release, ONPG); assay type: cell-based; settings: 1.5 mM ONPG
Description: as §3
To determine leakage of the inner membrane, release of the cytoplasmic enzyme β-galactosidase was evaluated. The bacteria were diluted to OD600=1 and 1.5 mM ONPG (O-nitrophenyl-β-D-galactopyranoside) was added. Absorbance of a product of enzyme reaction was measured at 420 nm. The other procedures were carried out in the same manner as in the experiment for outer membrane destruction.

[7] = system: Acinetobacter baumannii ATCC 17978; experiment: MIC assay, sensitizing effect of peptide on antibiotics; assay type: cell-based; settings: peptide 0.31 μM

Ac-KLLKLLKKPLKLLK-NH2 [CMP1107]
toxicity to host cells [1]: low toxicity to host cells
efficacy against E. coli ([2]; Korean Patent No. 1811437): weak efficacy against E. coli
destruction of membranes of Gram-negative bacteria (known property) ([2]; previously known sensitizing peptide): known to not destroy the membranes of Gram-negative bacteria

Ac-KKLLKLAKKPLKLLK-NH2 [CMP1307]
MIC reduction effect (fold reduction) of erythromycin [3]: 8 times
sensitizing ability to erythromycin and novobiocin [3]: excellent sensitizing ability

Ac-KKALKLLKKPLKLLK-NH2 [CMP1303]
MIC reduction effect (fold reduction) of erythromycin [3]: 8 times

Ac-KKLLKLLKKPLKLLK-NH2 [CMP1203]
MIC reduction effect (fold reduction) of erythromycin [3]: two times

Ac-AKLLKLLKKPLKLLK-NH2 [CMP1301]
sensitizing ability to erythromycin and novobiocin [3]: excellent sensitizing ability

OctA-DabDabALDabLADabDabPLDabLLDab-NH2 [CMP1501]
sensitizing effect on existing antibacterial agents compared with SPR741 ([4]; FIGS. 5B and 5C): almost the same or much better sensitizing effect
sensitizing effects on rifampicin and linezolid ([4]; peptide 0.5 ug/ml): excellent sensitizing effects
sensitizing effect compared with SPR741 at half its concentration ([4]; peptide concentration decreased by half as compared with SPR741, FIG. 5C): equal or superior effect

OctA-KKLLKLLKKPLKLLK-NH2 (Octanoyl-KKLLKLLKKPLKLLK-NH2; SMILES CCCCCCCC(=O)N[C@@H](CCCCN)C(=O)N[C@@H](CCCCN)C(=O)N[C@@H](CC(C)C)C(=O)N[C@@H](CC(C)C)C(=O)N[C@@H](CCCCN)C(=O)N[C@@H](CC(C)C)C(=O)N[C@@H](CC(C)C)C(=O)N[C@@H](CCCCN)C(=O)N[C@@H](CCCCN)C(=O)N1CCC[C@H]1C(=O)N[C@@H](CC(C)C)C(=O)N[C@@H](CCCCN)C(=O)N[C@@H](CC(C)C)C(=O)N[C@@H](CC(C)C)C(=O)N[C@@H](CCCCN)C(N)=O) [CMP1407]
destruction of outer membrane (β-lactamase release) [5]: did not destroy these membranes
destruction of inner membrane (β-galactosidase release) [6]: did not destroy these membranes

HexA-KKALKLAKKPLKLLK-NH2 (Hexanoyl-KKALKLAKKPLKLLK-NH2) [CMP1406]
sensitizing effect for fusidic acid ([7]; vs fusidic acid alone): 32 times
sensitizing effect for novobiocin ([7]; vs novobiocin alone): 8 times
sensitizing effect for rifampicin ([7]; vs rifampicin alone): 8 times

Source: US20230181678A1, “NOVEL ANTIBACTERIAL PEPTIDE OR PEPTIDE ANALOG AND USE THEREOF” (CAMP THERAPEUTICS INC., priority 2020, published 2023)
